Test results taken from PMC9704087, “Solid lipid nanoparticle as an effective drug delivery system of a novel curcumin derivative: formulation, release in vitro and pharmacokinetics in vivo” (Pharmaceutical Biology, 2022).

Columns and labels:
[1] = Pharmacokinetic study after intravenous injection; format: in vivo; details: male, Sprague Dawley, rat, SD rats, 5 mg/kg intravenous, plasma, n = 5
Experimental: Sprague Dawley (SD) male rats aged 8 weeks weighing 250–300 g were provided by the Laboratory Animal Center of Southwest Medical University and were placed in a pathogen-free environment, and had free access to food and water. Studies involving animals were approved (approval number: SCXK (Chuan) 2013-17) by the Ethics Committee of Southwest Medical University.
Rats that were used for the pharmacokinetic study were fasted for more than 12 h before use and had free access to water. Rats were randomly divided into two groups (n = 5), namely, the Cur group and CUD-SLN group, Rats in both groups were injected intravenously with 5 mg/kg of corresponding drugs. Approximately, 200 µL of blood was collected using a heparin-coated syringe at 2, 5, 15 and 30 min and at 1, 2, 4, 6, 8, 12, 24, 30, 36, 48, 54, 60, 72 and 84 h after injection. Blood was centrifuged for 10 min at 3000 rpm, and plasma was obtained. Furthermore, 50 µL of acetate buffer (pH 3.5) was added to 100 μL of plasma. After vortexing for 1 min, 0.5 mL of extract solvent (methanol–ethyl acetate 10:90, v/v) was added to the mixture, the mixture was vortexed again for 3 min, followed by centrifugation for 3 min at 8000 rpm. Then, 0.5 mL of supernatant was removed and evaporated with nitrogen flow. Next, 200 μL of reconstituted solvent (acetonitrile contains 0.1% phosphoric acid) was added to the dry residue, vortexed for 4 min, sonicated for 4 min, and centrifuged for 10 min at 10,000 rpm, A total of 50 μL of the supernatant was removed for the high-performance liquid chromatography (HPLC) (1260 Infinity II, Agilent Technologies, Santa Clara, CA) and calculated with the standard curve (Cur: A = 157.21 C + 0.148, R^2=0.9991, range: (0.02, 12) μg/mL; CUD: A = 18.159 C + 0.4884, R^2=0.9998, range: (0.02, 5) μg/mL; A = 46.552 C – 179.81, R^2=0.9997, range: (5, 160) μg/mL). […] The detection wavelength was 409 nm (Guo et al. [2020]).
(§1) Evaluation of the comprehensive design experiment was performed by SPSS 17.0 software (SPSS Inc., Chicago, IL). Fitting of the release curve was performed by Origin 8.0 software. Pharmacokinetic data were processed by DAS 2.1.1 software to obtain relevant pharmacokinetic parameters. Student’s t-test for two groups and one-way ANOVA for multiple groups were employed for the data analysed. p < 0.05 was considered statistically significant.

[2] = In vitro drug release, dialysis membrane diffusion technique; format: physicochemical
Experimental: The release of CUD-SLN and free CUD in vitro was studied using a dialysis membrane diffusion technique (MWCO 8000–14,000) (He et al. [2020]). Due to the low solubility of CUD in the buffer, Tween 80 was added to satisfy the leaking conditions. A total of 500 mL of PBS buffer with 10% w/v Tween 80 (pH 7.35) was used as a release medium. Next, 2 mL of freshly prepared CUD-SLN (1 mg/mL) was transferred to the dialysis bags, and 2 mg free CUD (suspended in 2 mL 0.5% w/v CMC-Na) was transferred to dialysis bags as a control. The test bags were immersed in a release medium at 37 ± 0.5 °C and stirred at 100 rpm using a dissolution apparatus (ZRS-8G, Intelligent dissolution tester, ZRS-8G, Tianjin, China). An aliquot of the sample (1 mL) was removed from the release medium at 15 and 30 min and 1, 2, 4, 6, 8, 12, 24 and 48 h. After each sampling, the blank dissolution medium was replenished with the same temperature and volume. Removed samples were filtered through a 0.22 μm filter, the CUD content was analysed by a UV–vis spectrophotometer, and the analytical method described before. The in vitro release data of the drug were fitted with the zero-order release equation, the first-order release equation and the Higuchi equation (Ma et al. [2019]).
as §1

Compound: COc1cc(/C=C/C(=O)CC(=O)/C=C/c2ccc(O)c(OC)c2)ccc1O [Cur, Curcumin]
- AUC(0-inf) [1]: 4880 ng·h/mL
- AUC(0-t) [1]: 4600 ng·h/mL
- Cmax [1]: 332 ng/mL
- Tmax [1]: 6 h
- clearance ([1]; read-out: CLz (clearance) (converted)): 171 mL/min/kg
- MRT last ([1]; read-out: MRT0–t): 9.53 h
- MRT inf ([1]; read-out: MRT0–∞): 10.8 h
- half-life ([1]; read-out: t1/2z (half-life) (converted)): 5.6 h

Compound: Carbonic acid 17-(1,5-dimethyl-hexyl)-10,13-dimethyl-2,3,4,7,8,9,10,11,12,13,14,15,16,17-tetradecahydro-1H-cyclopenta[a]phenanthren-3-yl ester 4-[7-(4-hydroxy-3-methoxy-phenyl)-3,5-dioxo-hepta-1,6-dienyl]-2-methoxy-phenyl ester [CUD]
- cumulative release of CUD at 48 h ([2]; PBS with 10% w/v Tween 80, pH 7.35, 37 °C, 100 rpm, n = 6): 60.24 ± 5.08%
- First-order equation k1 ([2]; fit of in vitro release data): 0.2258
- Higuchi's equation kh ([2]; fit of in vitro release data): 8.6574
- Zero order equation k0 ([2]; fit of in vitro release data): 1.0410
